# Earlier results as cited in patent publication US7323174B1, “Modulation of immune response and methods based thereon” (Arizona Board of Regents on behalf of The University of …, priority 2000, dated 2008).
# No end group written: not given here.
# Columns and labels:
# [1] = tested on: Th1 and Th2 cytokine production; conditions: individuals infected with an immunodeficiency-type retrovirus; described in U.S. Pat. No. 5,911,990
# [2] = tested on: immunodeficiency-type retrovirus; conditions: individuals infected with an immunodeficiency-type retrovirus; described in U.S. Pat. No. 5,911,990
sequence,measurement,setting,value
CKPISGHNSLFWYRQT [SEQ ID NO:1],aberrant Th1 and Th2 cytokine production,[1],normalize aberrant Th1 and Th2 cytokine production
same,progression to AIDS,[2],suppress progression to AIDS
